Where two headings read alike, the source gives them in different places.
Key:
[1] = Dynamic vapour sorption (DVS) analysis; type: physicochemical
Experimental: Approximately 10-20 mg of sample is placed into a mesh vapour sorption balance pan and loaded into a DVS Advantage dynamic vapour sorption balance by Surface Measurement Systems. The sample is subjected to a ramping profile from 40-90% relative humidity (RH) at 10% increments, maintaining the sample at each step until a stable weight has been achieved (dm/dt 0.004%, minimum step length 30 minutes, maximum step length 500 minutes) at 25° C. After completion of the sorption cycle, the sample is dried using the same procedure to 0% RH and then a second sorption cycle back to 40% RH. Two cycles are performed. The weight change during the sorption/desorption cycles are plotted, allowing for the hygroscopic nature of the sample to be determined. XRPD analysis is then carried out on any solid retained.
A dynamic vapour sorption analysis of Crystalline Form 1 is in FIG. 4. […] There is a loss of 1.9 wt. % on the first desorption cycle. There is an uptake of 1.1 wt. % (0.3 equivalents water) on the second sorption between 0 and 90% RH, followed by a loss of about 1.25 wt. % on desportion. There is a loss of 1.2 wt. % difference from the input to the end of the experiment. […] Crystalline Form 1 remains as the bulk form.

[2] = Form change on drying under vacuum (XRPD wet vs dry, thermal cycling experiments); type: physicochemical; conditions: dried at ambient temperature under vacuum for 2 h
Experimental: Additional solvent is added if necessary. Mixture is thermally cycled between 4° and 5° C. with 0.1° C./min cooling and heating rates and 1 h holds at 40 and 5° C. After 21 h cycling, additional solvent is added if thick slurry is observed and anti-solvent (heptane) is added if clear solution is observed. After a further 26 h thermal cycling, observations are recorded at 5° C. Material is isolated by centrifugation if necessary and analyzed by XRPD. […] XRPD analysis is repeated.

[3] = DVS, 25° C., between 0 and 90% RH

Row | Compound | uptake on the second sorption [1, 3] [wt. %] | uptake on the second sorption, equivalents water [1, 3] [equivalents water] | loss on the first desorption cycle ([1]; DVS, 25° C., first desorption cycle) [wt. %] | mass change on the first sorption cycle ([1]; DVS, 25° C., first sorption cycle) | loss on desorption after second sorption ([1]; DVS, 25° C., second desorption) | loss, difference from the input to the end of the experiment ([1]; DVS, 25° C., two cycles) [wt. %] | XRPD post-DVS ([1]; solid retained after DVS) | HPLC-CAD Purity (% w/w) (7 day stability, 40° C./75% RH) | HPLC-CAD Purity (% w/w) (7 day stability, 80° C.) | HPLC-CAD Purity (% w/w) (7 day stability, Ambient Light) | XRPD (7 day stability, Ambient Light) | stability under stressed conditions (summary statement referring to DVS and storage data in Example 6) | form after drying [2]
1 | CC[C@H]1[C@@H](O)[C@@H]2[C@H]([C@@H](O)C[C@]3(C)[C@@H]([C@H](C)CCC(=O)O)CC[C@@H]23)[C@@]2(C)CC[C@@H](O)C[C@@H]12 [Crystalline Form 1, 3α,7α,11β-trihydroxy-6α-ethyl-5β-cholan-24-oic acid] | 1.1 | 0.3 | 1.9 | initial mass loss on the first sorption cycle before a slight uptake is observed | about 1.25 wt. % | 1.2 | slight loss of crystallinity | 97.1 | 96.4 | 97.5 | 1^ | stable under stressed conditions | 
2 | CC[C@H]1[C@@H](O)[C@@H]2[C@H]([C@@H](O)C[C@]3(C)[C@@H]([C@H](C)CCC(=O)O)CC[C@@H]23)[C@@]2(C)CC[C@@H](O)C[C@@H]12 [Crystalline Form 2, 3α,7α,11β-trihydroxy-6α-ethyl-5β-cholan-24-oic acid] |  |  |  |  |  |  |  |  |  |  |  |  | converts to Form 3

Source: patent publication US20260274886A1, “CRYSTALLINE FORMS OF A FARNESOID X RECEPTOR AGONIST” (ALFASIGMA S.P.A., priority 2023, published 2026)
